{"source": "patent US4256736A", "about": "“Psychopharmacological peptides” (Akzona Incorporated, priority 1978, dated 1981)", "key": {"[1]": {"conditions": "in words; cited from earlier work"}, "rats [2]": {"tested_on": "rats", "conditions": "in words, prior art section; cited from earlier work"}, "opiate receptor": {"tested_on": "opiate receptor", "conditions": "in words, prior art section; cited from earlier work"}, "rats [3]": {"tested_on": "rats", "experiment": "Pole-jumping avoidance behavior (pole climbing test), extinction of the flight response", "format": "in vivo, rat", "conditions": "mean ± S.E.", "text": "Rats were trained to jump onto a pole within 5 sec. following presentation of the conditioned stimulus (CS) which was a light on top of the cage. […] 10 trials a day were given in one session with an average intertrial interval of 60 sec. Intervals between trials were 40, 60 and 80 sec. which were presented in a random fashion. Rats were trained for 4 days. Extinction was studied the day following acquisition. During this first post-acquisition session failure to respond within 5 sec. to the CS were not followed by the UCS. All rats were given a 10 trial extinction session. Those animals which made 8 or more avoidances were used for further experimentation. These rats received peptide or placebo (saline) in a volume of 0.5 ml per rat s.c. immediately after completion of the first extinction session. Extinction was studied again 2 and 4 h. later."}, "[4]": {"conditions": "in words; can be antagonised by naloxone; cited from earlier work"}, "melanocytes": {"tested_on": "melanocytes", "conditions": "in words; cited from earlier work"}, "rats [5]": {"tested_on": "rats", "experiment": "Ambulation of rats", "format": "in vivo, rat", "conditions": "in words, higher dosages"}, "[6]": {"conditions": "0.03 μg per rat s.c., 0 h (first extinction session, injection immediately after)"}, "[7]": {"conditions": "0.03 μg per rat s.c., 2 h after injection"}, "[8]": {"conditions": "0.03 μg per rat s.c., 4 h after injection"}, "[9]": {"conditions": "0.1 μg per rat s.c., 0 h (first extinction session, injection immediately after)"}, "[10]": {"conditions": "0.1 μg per rat s.c., 2 h after injection"}, "[11]": {"conditions": "0.1 μg per rat s.c., 4 h after injection"}, "[12]": {"conditions": "0.3 μg per rat s.c., 0 h (first extinction session, injection immediately after)"}, "[13]": {"conditions": "0.3 μg per rat s.c., 2 h after injection"}, "[14]": {"conditions": "0.3 μg per rat s.c., 4 h after injection"}}, "note": "Entries after “also recorded” stand apart in the source; their conditions may differ.", "data": [{"compound": "γ-lipotropin", "values": [{"measurement": "fat-mobilising activity", "setting": "[1]", "result": "possesses fat-mobilising properties"}]}, {"compound": "Met-enkephalin", "values": [{"measurement": "effect on extinction of the (active) flight response in the pole-climbing test", "setting": "rats [2]", "result": "inhibit the extinction of the flight response"}, {"measurement": "affinity for the opiate receptor", "setting": "opiate receptor", "result": "a certain affinity for the opiate receptor"}]}, {"compound": "O=C(CCCN1CCC(O)(c2ccc(Cl)cc2)CC1)c1ccc(F)cc1", "note": "[Haloperidol]", "values": [{"measurement": "Extinction (10 trials)", "setting": "rats [3]; [6]", "result": "9.3 ± 0.3"}, {"measurement": "Extinction (10 trials)", "setting": "rats [3]; [7]", "result": "6.5 ± 0.7"}, {"measurement": "Extinction (10 trials)", "setting": "rats [3]; [8]", "result": "4.0 ± 0.6"}, {"measurement": "Extinction (10 trials)", "setting": "rats [3]; [9]", "result": "9.5 ± 0.4"}, {"measurement": "Extinction (10 trials)", "setting": "rats [3]; [10]", "result": "3.0 ± 0.0"}, {"measurement": "Extinction (10 trials)", "setting": "rats [3]; [11]", "result": "0.5 ± 0.4"}]}, {"compound": "β-endorphin (YGGFMTSEKSQTPLVTLFKNAIIKNAYKKGE; Beta-endorphin; UniProt P01189 237-267, looked up)", "values": [{"measurement": "effect on extinction of the (active) flight response in the pole-climbing test", "setting": "rats [2]", "result": "inhibits the extinction of the (active) flight response"}, {"measurement": "analgesic activity", "setting": "[4]", "result": "possess analgesic activity"}]}, {"compound": "β-melanotropin", "values": [{"measurement": "influencing the pigmentation of the skin", "setting": "melanocytes", "result": "capable of influencing the pigmentation of the skin by stimulating the melanocytes"}]}, {"compound": "α-endorphin", "values": [{"measurement": "effect on extinction of the (active) flight response in the pole-climbing test", "setting": "rats [2]", "result": "inhibit the extinction of the flight response; also recorded: retarded this extinction of the flight response"}, {"measurement": "reduction in ambulation", "setting": "rats [5]", "result": "could not be observed"}, {"measurement": "Extinction (10 trials)", "setting": "rats [3]; [12]", "result": "9.0 ± 0.4"}, {"measurement": "Extinction (10 trials)", "setting": "rats [3]; [13]", "result": "8.3 ± 0.3"}, {"measurement": "Extinction (10 trials)", "setting": "rats [3]; [14]", "result": "7.8 ± 0.3"}, {"measurement": "affinity for the opiate receptor", "setting": "opiate receptor", "result": "a certain affinity for the opiate receptor"}]}, {"compound": "β-LPH-(61-69)", "values": [{"measurement": "effect on extinction of the (active) flight response in the pole-climbing test", "setting": "rats [2]", "result": "inhibit the extinction of the flight response"}, {"measurement": "affinity for the opiate receptor", "setting": "opiate receptor", "result": "a certain affinity for the opiate receptor"}]}, {"compound": "H-GGFMTSEKSQTPLVTL-OH [[Des-Tyr^1]γ-endorphin, H-Gly-Gly-Phe-Met-Thr-Ser-Glu-Lys-Ser-Gln-Thr-Pro-Leu-Val-Thr-Leu-OH]", "values": [{"measurement": "Extinction (10 trials)", "setting": "rats [3]; 0.01 μg per rat s.c., 0 h (first extinction session, injection immediately after)", "result": "9.0 ± 0.3"}, {"measurement": "Extinction (10 trials)", "setting": "rats [3]; 0.01 μg per rat s.c., 2 h after injection", "result": "6.2 ± 0.4"}, {"measurement": "Extinction (10 trials)", "setting": "rats [3]; 0.01 μg per rat s.c., 4 h after injection", "result": "4.2 ± 0.7"}, {"measurement": "Extinction (10 trials)", "setting": "rats [3]; [9]", "result": "8.8 ± 0.4"}, {"measurement": "Extinction (10 trials)", "setting": "rats [3]; [10]", "result": "2.8 ± 1.0"}, {"measurement": "Extinction (10 trials)", "setting": "rats [3]; [11]", "result": "1.2 ± 0.5"}, {"measurement": "Extinction (10 trials)", "setting": "rats [3]; [12]", "result": "9.3 ± 0.5"}, {"measurement": "Extinction (10 trials)", "setting": "rats [3]; [13]", "result": "3.0 ± 0.7"}, {"measurement": "Extinction (10 trials)", "setting": "rats [3]; [14]", "result": "1.3 ± 0.5"}]}, {"compound": "Leu-enkephalin", "values": [{"measurement": "affinity for the opiate receptor", "setting": "opiate receptor", "result": "Affinity for the opiate receptor"}]}, {"compound": "γ-endorphin", "values": [{"measurement": "effect on extinction of the (active) flight response in the pole-climbing test", "setting": "rats [2]", "result": "accelerate the extinction of the flight response"}, {"measurement": "reduction in ambulation", "setting": "rats [5]", "result": "could not be observed"}, {"measurement": "Extinction (10 trials)", "setting": "rats [3]; [6]", "result": "8.8 ± 0.3"}, {"measurement": "Extinction (10 trials)", "setting": "rats [3]; [7]", "result": "6.7 ± 0.8"}, {"measurement": "Extinction (10 trials)", "setting": "rats [3]; [8]", "result": "4.0 ± 0.7"}, {"measurement": "Extinction (10 trials)", "setting": "rats [3]; [9]", "result": "9.3 ± 0.3"}, {"measurement": "Extinction (10 trials)", "setting": "rats [3]; [10]", "result": "5.5 ± 0.6"}, {"measurement": "Extinction (10 trials)", "setting": "rats [3]; [11]", "result": "2.3 ± 0.4"}, {"measurement": "Extinction (10 trials)", "setting": "rats [3]; [12]", "result": "9.0 ± 0.4"}, {"measurement": "Extinction (10 trials)", "setting": "rats [3]; [13]", "result": "4.6 ± 0.3"}, {"measurement": "Extinction (10 trials)", "setting": "rats [3]; [14]", "result": "0.8 ± 0.4"}]}, {"compound": "β-Lipotropin", "values": [{"measurement": "fat-mobilising activity", "setting": "[1]", "result": "shows fat-mobilising activity"}]}, {"compound": "D-Ala-Met-enkephalin", "values": [{"measurement": "affinity for the opiate receptor", "setting": "opiate receptor", "result": "Affinity for the opiate receptor"}]}]}
